Patent publication US10150742B2, “Substituted heterocyclic compounds for treating or preventing viral infections” (President and Fellows of Harvard College, priority 2013, dated 2018)
Blank lines part the entries; values can stand above or below the compound they belong to.

Columns and labels:
[1] = tested on: dengue virus serotype 2, DENV2; test: Reduction of DENV viral titer by kinase inhibitors and labelled GNF2 derivatives (cell-based); details: for EC90: Dengue virus, DENV2, read-out: EC90 (dengue virus serotype 2, DENV2)
Method: In order to investigate the role of kinases on DENV entry, the order of addition of the cells, virus, and inhibitor was investigated. An inhibitor was either (i) contacted with a virus for 1 h at 37° C.; (ii) contacted with cells for 1 h at 37° C.; or (iii) contacted with a virus and cells for 1 h at 37° C. The cells were washed to remove virus and inhibitor. The washed cells were exposed to either DMSO or an inhibitor. Viral titer was measured at intervals post-infection by harvesting supernatants and measuring virus production by a plaque formation assay (PFA).

DENV2 [2] = test: Order-of-addition / post-infection treatment, single-cycle DENV2 yield in BHK21 cells by plaque-formation assay; type: cell-based; details: for inhibition of DENV2 replication when added after infection: post-treatment of cells
Method: To examine the point(s) in the DENV infectious cycle affected by GNF-2, we performed order of addition experiments measuring the effect of GNF-2 when incubated with cells or virus prior to infection (PRE), when added at the time of infection (CO), or when added after the initial infection had been allowed to occur (POST). […] BHK21 cells were inoculated with DENV2 at a multiplicity of infection (MOI) of 1 and incubated for one-hour at 37° C. after which the inoculum was removed, the cells were washed, and fresh medium was added to limit infection to a single round. At twenty-four hours post-infection, corresponding to approximately one complete life cycle of DENV, the yield of infectious virions that had been released to the culture supernatant was quantified by plaque-formation assay (PFA) as a measure of successful DENV replication.

DENV = test: Association of DENV with liposomes; type: biochemical
Abl kinases = test: Abl kinase inhibition (IC50 kinase); type: biochemical
DENV2 [3] = test: DENV2 infectivity assay, compound pre-incubated with virus inoculum, viral yield by plaque formation assay; details: treatment of the virus

- EC90 [1]: 10 µM
Compound: Cc1ccc(NC(=O)c2ccc(CN3CCN(C)CC3)cc2)cc1Nc1nccc(-c2cccnc2)n1 [imatinib]
- reduction of DENV viral titer [1]: did not
- inhibition of DENV2 replication when added after infection (DENV2 [2]): inhibited DENV2 replication

Compound: NC(=O)c1cccc(-c2cc(Nc3ccc(OC(F)(F)F)cc3)ncn2)c1 [GNF-2]
- association of DENV with liposomes (DENV): does not block association
- IC50 (Abl kinases): 0.138 ± 0.005 µM
- lowering of DV titer when pre-incubated with the virus, compared to DMSO control (DENV2 [3]): ~1 log
- reduction of DENV viral titer [1]: over 1 log unit
- EC90 [1]: ~1 µM
- IC90 (concentration causing a 10-fold decrease in single-cycle viral yield) (DENV2 [2]; added to cells post-infection, BHK21, MOI 1, 24 h): 8 μM
- inhibition of DENV2 replication when added after infection (DENV2 [2]): inhibited DENV2 replication
